Like-named read-outs stand apart in the source and are kept apart here.
Legend:
Mcl-1 = Mcl-1 (Homo sapiens (Human), UniProt Q07820); assay: Fluorescence polarization anisotropy (FPA) competition assay, FITC-Bak or FITC-Bim BH3 peptide; assay type: binding; details: read-out: Ki for Inhibition of Mcl-1 by FPA assay
[1] = test system: H929 human cancer cell lines; assay: Cellular viability / proliferation (Cell TiterGlo, 72 h); assay type: cell-based
Outline: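 1,000 cells/well, 10% FBS medium; compound added at 24 h, 2-fold dilutions from 50 μM top, DMSO <1% final. 72 h exposure, CellTiterGlo 30 min RT dark, luminescence read. IC50 by 4-parameter fit.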

[2] = Homo sapiens, NCI-H929, 72 h, read-out: GI50 on cellular proliferation of H929 human cancer cell lines, H929 cells, 72 h, Cell TiterGlo, 10% FBS
[3] = read-out: GI50 on cellular proliferation of H929 human cancer cell lines, H929 cells, 72 h, Cell TiterGlo, 10% FBS

Mcl-1, sequence (Q07820 172-327): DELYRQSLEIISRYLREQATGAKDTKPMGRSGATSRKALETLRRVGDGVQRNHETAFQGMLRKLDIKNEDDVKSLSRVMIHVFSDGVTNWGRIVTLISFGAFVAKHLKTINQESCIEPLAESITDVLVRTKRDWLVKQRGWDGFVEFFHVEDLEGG

Compound	Ki (Mcl-1) [nM]	GI50 [1, 2] [nM]	GI50 [1, 3] [nM]	GI50 ([1]; H929 cells, 72 h, Cell TiterGlo, 10% FBS, read-out: GI50 on cellular proliferation of H929 human cancer cell lines) [nM]
Cc1cc(OCCCc2c3n(c4c(-c5c(C)n[nH]c5C)c(Cl)ccc24)[C@H](C)CN(c2cc(C(=O)O)cc4c2ccn4C)C3=O)cc(C)c1Cl [Example 71, (R)-4-(7-chloro-10-(3-(4-chloro-3,5-dimethylphenoxy)propyl)-6-(3,5-dimethyl-1H-pyrazol-4-yl)-4-methyl-1-oxo-3,4-dihydropyrazino[1,2-a]indol-2(1H)-yl)-1-methyl-1H-indole-6-carboxylic acid]	< 1	3300		
Cc1cc(OCCCc2c3n(c4c(-c5c(C)nn(C)c5C)c(Cl)ccc24)[C@H](C)CN(c2cccc4c2cc(C(=O)O)n4Cc2ccccn2)C3=O)cc(C)c1Cl [Example 352, (R)-4-(7-chloro-10-(3-(4-chloro-3,5-dimethylphenoxy)propyl)-4-methyl-1-oxo-6-(1,3,5-trimethyl-1H-pyrazol-4-yl)-3,4-dihydropyrazino[1,2-a]indol-2(1H)-yl)-1-(pyridin-2-ylmethyl)-1H-indole-2-carboxylic acid]	2.8	5100		
Cc1cc(OCCCc2c3n(c4c(-c5c(C)ncnc5C)c(Cl)ccc24)CCCN(c2cn(C)c4ccc(C(=O)O)cc24)C3=O)cc(C)c1Cl [Example 156, 3-[8-Chloro-11-[3-(4-chloro-3,5-dimethyl-phenoxy)propyl]-7-(4,6-dimethylpyrimidin-5-yl)-1-oxo-4,5-dihydro-3H-[1,4]diazepino[1,2-a]indol-2-yl]-1-methyl-indole-5-carboxylic acid]	< 1	260		
Cc1cc(OCCCc2c3n(c4c(-c5c(C)nn(C)c5C)c(Cl)ccc24)[C@H](C)CN(c2ccc4c(C(=O)O)cccc4n2)C3=O)cc(C)c1Cl [Example 157, (R)-2-(7-Chloro-10-(3-(4-chloro-3,5-dimethylphenoxy)propyl)-4-methyl-1-oxo-6-(1,3,5-trimethyl-1H-pyrazol-4-yl)-3,4-dihydropyrazino[1,2-a]indol-2(1H)-yl)quinoline-5-carboxylic acid]	2.5	6400		
Cc1cc(OCCCc2c3n(c4c(-c5c(C)nc(CN(C)C)nc5C)c(Cl)ccc24)[C@H](C)CN(c2cn(C)c4ccc(C(=O)O)cc24)C3=O)cc(C)c1Cl [Example 451, (R)-3-(7-Chloro-10-(3-(4-chloro-3,5-dimethylphenoxy)propyl)-6-(2-((dimethylamino)methyl)-4,6-dimethylpyrimidin-5-yl)-4-methyl-1-oxo-3,4-dihydropyrazino[1,2-a]indol-2(1H)-yl)-1-methyl-1H-indole-5-carboxylic acid]	< 1	< 200		
Cc1cc(OCCCc2c3n(c4c(-c5c(C)nc(CN6CCOCC6)nc5C)c(Cl)ccc24)[C@H](C)CN(c2cn(C)c4ccc(C(=O)O)cc24)C3=O)cc(C)c1Cl [Example 398, (R)-3-(7-Chloro-10-(3-(4-chloro-3,5-dimethylphenoxy)propyl)-6-(4,6-dimethyl-2-(morpholinomethyl)pyrimidin-5-yl)-4-methyl-1-oxo-3,4-dihydropyrazino[1,2-a]indol-2(1H)-yl)-1-methyl-1H-indole-5-carboxylic acid]	< 1	200		
COc1ccc(N2C[C@@H](C)n3c(c(CCCOc4cc(C)c(Cl)c(C)c4)c4ccc(Cl)c(-c5c(C)nn(C)c5C)c43)C2=O)c2c1c(C(=O)O)cn2C [Example 445, (R)-7-(7-Chloro-10-(3-(4-chloro-3,5-dimethylphenoxy)propyl)-4-methyl-1-oxo-6-(1,3,5-trimethyl-1H-pyrazol-4-yl)-3,4-dihydropyrazino[1,2-a]indol-2(1H)-yl)-4-methoxy-1-methyl-1H-indole-3-carboxylic acid]	2.2	820		
Cc1cc(OCCCc2c3n(c4c(-c5c(C)nn(C)c5C)c(Cl)ccc24)[C@H](C)CN(c2cccc4cc(C(=O)O)n(Cc5ccccn5)c24)C3=O)cc(C)c1Cl [Example 249, 7-[(4R)-7-chloro-10-[3-(4-chloro-3,5-dimethyl-phenoxy)propyl]-4-methyl-1-oxo-6-(1,3,5-trimethylpyrazol-4-yl)-3,4-dihydropyrazino[1,2-a]indol-2-yl]-1-(2-pyridylmethyl)indole-2-carboxylic acid]	< 1		490	
Cc1cc(OCCCc2c3n(c4c(-c5c(C)nn(C)c5C)c(Cl)ccc24)[C@H](C)CN(c2cccc4cc(C(=O)O)cnc24)C3=O)cc(C)c1Cl [Example 105, (R)-8-(7-Chloro-10-(3-(4-chloro-3,5-dimethylphenoxy)propyl)-4-methyl-1-oxo-6-(1,3,5-trimethyl-1H-pyrazol-4-yl)-3,4-dihydropyrazino[1,2-a]indol-2(1H)-yl)quinoline-3-carboxylic acid]	< 1	270		
Cc1cc(N2C[C@@H](C)n3c(c(CCCOc4cc(C)c(Cl)c(C)c4)c4ccc(Cl)c(-c5c(C)nn(C)c5C)c43)C2=O)c2c(c1)c(C(=O)O)cn2C [Example 159, (R)-7-(7-chloro-10-(3-(4-chloro-3,5-dimethylphenoxy)propyl)-4-methyl-1-oxo-6-(1,3,5-trimethyl-1H-pyrazol-4-yl)-3,4-dihydropyrazino[1,2-a]indol-2(1H)-yl)-1,5-dimethyl-1H-indole-3-carboxylic acid]	< 1	290		
Cc1cc(OCCCc2c3n(c4c(-c5c(C)nn(C)c5C)c(Cl)ccc24)[C@H](C)CN(c2cn(C)c4ccc(C(=O)NO)cc24)C3=O)cc(C)c1Cl [Example 361, (R)-3-(7-Chloro-10-(3-(4-chloro-3,5-dimethylphenoxy)propyl)-4-methyl-1-oxo-6-(1,3,5-trimethyl-1H-pyrazol-4-yl)-3,4-dihydropyrazino[1,2-a]indol-2(1H)-yl)-N-hydroxy-1-methyl-1H-indole-5-carboxamide]	2	290		
CC[C@@H]1Cn2c(c(CCCOc3cc(C)c(Cl)c(C)c3)c3ccc(Cl)c(-c4c(C)nn(C)c4C)c32)C(=O)N1c1cccc(C(=O)O)c1 [Example 21, (R)-3-(7-chloro-10-(3-(4-chloro-3,5-dimethylphenoxy)propyl)-3-ethyl-t-oxo-6-(1,3,5-trimethyl-1H-pyrazol-4-yl)-3,4-dihydropyrazino[1,2-a]indol-2(1H)-yl)benzoic acid]	2.3			4900
Cc1cc(OCCCc2c3n(c4c(-c5c(C)nn(C)c5C)c(Cl)ccc24)[C@H](C)CN(c2nc(C(=O)O)c4ccccn24)C3=O)cc(C)c1Cl [Example 111, (R)-3-(7-chloro-10-(3-(4-chloro-3,5-dimethylphenoxy)propyl)-4-methyl-1-oxo-6-(1,3,5-trimethyl-1H-pyrazol-4-yl)-3,4-dihydropyrazino[1,2-a]indol-2(1H)-yl)imidazo[1,5-a]pyridine-1-carboxylic acid]	< 1	2600		
Cc1cc(OCCCc2c3n(c4c(-c5c(C)nn(C)c5C)c(Cl)ccc24)[C@H](C)CN(c2ccc4nc(C(=O)O)ccc4c2)C3=O)cc(C)c1Cl [Example 102, (R)-6-(7-Chloro-10-(3-(4-chloro-3,5-dimethylphenoxy)propyl)-4-methyl-1-oxo-6-(1,3,5-trimethyl-1H-pyrazol-4-yl)-3,4-dihydropyrazino[1,2-a]indol-2(1H)-yl)quinoline-2-carboxylic acid]	1.5	4900		
Cc1cc(OCCCc2c3n(c4c(-c5c(C)nn(C)c5C)c(Cl)ccc24)[C@H](C)CN(c2cccc4c(C(=O)O)cn(C)c24)C3=O)cc(C)c1Cl [Example 69, (R)-7-(7-Chloro-10-(3-(4-chloro-3,5-dimethylphenoxy)propyl)-4-methyl-1-oxo-6-(1,3,5-trimethyl-1H-pyrazol-4-yl)-3,4-dihydropyrazino[1,2-a]indol-2(1H)-yl)-1-methyl-1H-indole-3-carboxylic acid]	< 1		< 200	
Cc1cc(OCCCc2c3n(c4c(-c5c(C)nn(C)c5C)c(Cl)ccc24)[C@H](C)CN(c2cccc4nn(C)c(C(=O)O)c24)C3=O)cc(C)c1Cl [Example 132, 4-[(4R)-7-chloro-10-[3-(4-chloro-3,5-dimethyl-phenoxy)propyl]-4-methyl-1-oxo-6-(1,3,5-trimethylpyrazol-4-yl)-3,4-dihydropyrazino[1,2-a]indol-2-yl]-2-methyl-indazole-3-carboxylic acid]	< 1	840		
Cc1cc(OCCCc2c3n(c4c(-c5c(C)nn(C)c5C)c(Cl)ccc24)[C@H](C)CN(c2cccc4cc(C(=O)O)n(Cc5ccncc5)c24)C3=O)cc(C)c1Cl [Example 248, 7-[(4R)-7-chloro-10-[3-(4-chloro-3,5-dimethyl-phenoxy)propyl]-4-methyl-1-oxo-6-(1,3,5-trimethylpyrazol-4-yl)-3,4-dihydropyrazino[1,2-a]indol-2-yl]-1-(4-pyridylmethyl)indole-2-carboxylic acid]	< 1	570		
CC(=O)Nc1ccc2c(c1)c(N1C[C@@H](C)n3c(c(CCCOc4cc(C)c(Cl)c(C)c4)c4ccc(Cl)c(-c5c(C)nn(C)c5C)c43)C1=O)cn2C [Example 257, N-[3-[(4R)-7-chloro-10-[3-(4-chloro-3,5-dimethyl-phenoxy)propyl]-4-methyl-1-oxo-6-(1,3,5-trimethylpyrazol-4-yl)-3,4-dihydropyrazino[1,2-a]indol-2-yl]-1-methyl-indol-5-yl]acetamide]	2.3	470		
Cc1cc(OCCCc2c3n(c4c(-c5c(C)nn(C)c5C)c(Cl)ccc24)[C@H](C)CN(c2cn(C)c4c(-c5nnnn5C)cccc24)C3=O)cc(C)c1Cl [Example 372, (R)-7-Chloro-10-(3-(4-chloro-3,5-dimethylphenoxy)propyl)-4-methyl-2-(1-methyl-7-(1-methyl-1H-tetrazol-5-yl)-1H-indol-3-yl)-6-(1,3,5-trimethyl-1H-pyrazol-4-yl)-3,4-dihydropyrazino[1,2-a]indol-1(2H)-one]	1.2	2000		

Source: patent US11596639B2, “Substituted indole Mcl-1 inhibitors” (Vanderbilt University, priority 2016, dated 2023)
